# Data from US6921545B2 (priority 2001, dated 2005).
# Several values for one entry are separate records, joined by “and”; a condition that tells them apart may be missing. Equal values may be shown once. Where a name gives a salt, the structure may show the parent alone.
# How the values were obtained:
# [1] = system: Ephestia kuehniella (50 eggs); conditions: in vivo
# [2] = system: Sitophilus granarius (broodmixture); conditions: in vivo
# [3] = system: Sitophilus granarius, Ephestia kuehniella eggs, Tribolium castaneum and brood; conditions: in vivo
# [4] = system: Tribolium castaneum 30 live beetles and brood; conditions: in vivo
# [5] = system: insect eggs; conditions: in vivo; cited from earlier work
SMILES,minimum concentration for achieving an ovicidal action [5] [g/m^3],further results
"O=S(=O)(F)F [SO2F2, sulfuryl fluoride]",,Offspr. (offspring in the fumigation test) [1]: 0; Offspr. (offspring in the fumigation test) [2]: 0 beetles; offspring produced [3]: offspring were produced; Offspr. (offspring in the fumigation test) [4]: 3 beetles and 4 beetles and 5 beetles
CC#N [acetonitrile],10,
O=C=S [carbonyl sulfide],5,
COC=O [methyl formate],20,
CN=C=S [methyl isothiocyanate],5,
